Values quoted from earlier work, collected in patent US20080188497A1, “Dipyridamole, Acetylsalicylic Acid, and Angiotensin II Antagonist Pharmaceutical Compositions” (Boehringer Ingelheim International GmbH, priority 2003, published 2008).

Conditions: ESPS-2 clinical study; compared with low-dose aspirin / aspirin alone

OCCN(CCO)c1nc(N2CCCCC2)c2nc(N(CCO)CCO)nc(N3CCCCC3)c2n1 [dipyridamole, 2,6-bis(diethanolamino)-4,8-dipiperidinopyrimido[5,4-d]pyrimidine]
reduction of stroke risk: as effective as low-dose aspirin
